# Reference: patent US10377991B2, “Method of producing airway epithelial cells” (KYOTO UNIVERSITY, priority 2015, dated 2019)
# Test system: proximal airway epithelial progenitor cells induced from human iPS cells (201B7)
# Experiment: Induction of differentiation into ciliated airway epithelial cells in Step 6 three-dimensional culture, qRT-PCR of FOXJ1, DNAHS and SNTN
# Format: cell-based
# Settings: 10 μM DAPT in medium for Step 6 from Day 42, read on Day 56; versus Step 6 medium without DAPT
# Experimental: On Day 42 (i.e., upon completion of Step 5), the medium in the lower layer of Cell Culture Inserts (Corning) was exchanged with the medium for Step 6, and the medium of the lower layer was selectively exchanged with another medium every other day.
# The medium for Step 6 was prepared by supplementing the Pneumacult-ALI Maintenance Medium (STEMCELL Technologies) with 10 μM Y-27632.
# On Day 6 (i.e., upon completion of Step 1), Day 14 (i.e., upon completion of Step 3), Day 28 (i.e., upon completion of Step 4), Day 42 (i.e., upon completion of Step 5), and Day 56 (i.e., upon completion of Step 6), expression levels of FOXJ1, DNAHS, and SNTN as marker genes specific to ciliated airway epithelial cells were analyzed via quantitative RT-PCR. Day 56 (+DAPT) represents the results of culture conducted in the medium for Step 6 supplemented with 10 μM DAPT from Day 42 (i.e., upon completion of Step 5). The measured values indicate the ratio of the cell expression levels to the amount of β-actin (AB) corrected with the expression levels in the human fetal trachea (F-trachea, 29-weeks pregnant, BioChain Institute).
compound,measurement,value
"C[C@H](NC(=O)Cc1cc(F)cc(F)c1)C(=O)N[C@H](C(=O)OC(C)(C)C)c1ccccc1 [DAPT, N-[2S-(3,5-difluorophenyl)acetyl]-L-alanyl-2-phenyl-1,1-dimethylethyl ester-glycine]","differentiation into ciliated airway epithelial cells (expression of FOXJ1, DNAHS, SNTN by qRT-PCR)",further accelerated
